{
  "source": "patent US10369145B2",
  "about": "“Coumarin derivatives and methods of use in treating hyperproliferative diseases” (DISCOVERYBIOMED, INC., priority 2013, dated 2019)",
  "key": {"786-0": {"tested_on": "786-0", "experiment": "NCI 60 panel: 786-0 (Renal Cancer)", "type": "cell-based"}, "COLO 205": {"tested_on": "COLO 205", "experiment": "NCI 60 panel: COLO 205 (Colon Cancer)", "type": "cell-based"}, "SN12C": {"tested_on": "SN12C", "experiment": "NCI 60 panel: SN12C (Renal Cancer)", "type": "cell-based"}, "HCT-116": {"tested_on": "HCT-116", "experiment": "NCI 60 panel: HCT-116 (Colon Cancer)", "type": "cell-based"}, "[1]": {"tested_on": "hyperproliferative PKD cells (cloned polycystic kidney tissue cells)", "experiment": "Concentration-response in primary cultures cloned from cystic kidney tissue", "type": "cell-based", "conditions": "hyperproliferative PKD cells, 72 hour treatment", "method": "The concentration-response effects of Compound DBM 228, Compound DBM 308, Compound DBM 101, and Compound DBM 328 were determined in primary cultures derived as ‘clones’ from cystic versus non-cystic kidney tissue. CRC graphs, IC50 values, and the percent maximum inhibition versus lowest doses without effect were calculated with GraphPad Prism software. […] There was also a marked separation in effect between hyperproliferative PKD cells (FIG. 5A and Table 3) and WT cells (FIG. 5B and Table 4)."}, "OVCAR-3": {"tested_on": "OVCAR-3", "text": "(§1) TGI means the drug concentration resulting in total growth inhibition or “cytostasis.” LC50 is the concentration of drug resulting in a 50% reduction in the measured cytosolic ATP at the end of the drug treatment as compared to that at the beginning, indicating a net loss of cells following treatment (cytotoxicity).\n(§2) A major limitation with the anti-mitotic drugs in particular and in conventional chemotherapeutics in general, is their susceptibility to cellular mechanisms of adaptive/intrinsic multi-drug resistance (i.e., MDR efflux pumps such as p-glycoprotein, MRP1)."}, "SK-OV-3": {"tested_on": "SK-OV-3", "text": "as §1, §2"}, "NCI/ADR-RES": {"tested_on": "NCI/ADR-RES", "text": "as §1, §2"}, "CAKI-1 [2]": {"tested_on": "CAKI-1", "experiment": "Complementary DBM in vitro profiling: CAKI-1 (Renal Cancer)", "type": "cell-based", "method": "(§3) The compounds described herein are effective for inhibiting cellular proliferation in hyperproliferative cell types. To study the effects of these compounds, an assay was developed to differentiate the effects of the compounds on proliferating versus confluent cells. The assay design generates a proliferating density 24 hours after seeding and provides a 3-day active cell growth/doubling window in which to gauge the anti-proliferative effect of the compounds described herein. […] In this 3-day growth window, cell number increases with daily doublings across the 72-hour period (see FIG. 1).\n(§4) In each assay design, compounds were added at the 24-hour timepoint after cell seeding. The effect of the compounds, relative to vehicle control and to VelCade (a proteasome inhibitor approved in the U.S. for treating relapsed multiple myeloma and mantle cell lymphoma) as a positive control, was assessed across the 3-day growth window for proliferating cells and on an already near confluent culture of cells for the same time period. Normal cells were handled in the same manner, with some adjustment of seeding density needed in select cases. […]\n(§5) Cell number at the end of the assay was determined using the CELLTITER-GLO Luminescent Cell Viability Assay (Promega; Madison, Wis.). The CELLTITER-GLO Luminescent Cell Viability Assay is a homogeneous method of determining the number of viable cells in culture based on quantitation of the ATP present, an indicator of metabolically active cells. IC50 values were calculated. […]\n(§6) For a typical screening experiment to identify the compounds, cells were seeded into 96- or 384-well microtiter plates at plating densities pre-determined for each cell line to ensure drug exposure occurs during the proliferative phase well before confluency is reached. […] Values were calculated for each of these three parameters if the level of activity was reached; however, if the effect was not reached or was exceeded, the value for that parameter was expressed as greater or less than the maximum or minimum concentration tested."}, "TK-10": {"tested_on": "TK-10", "experiment": "NCI 60 panel: TK-10 (Renal Cancer)", "type": "cell-based"}, "HCT-15": {"tested_on": "HCT-15", "experiment": "NCI 60 panel: HCT-15 (Colon Cancer)", "type": "cell-based"}, "RPMI-8826": {"tested_on": "RPMI-8826", "experiment": "Complementary DBM in vitro profiling: RPMI-8826 (Hematologic Cancer)", "type": "cell-based", "method": "as §3, §4, §5, §6"}, "CAKI-1 [3]": {"tested_on": "CAKI-1", "experiment": "NCI 60 panel: CAKI-1 (Renal Cancer)", "type": "cell-based"}, "LOX IMVI": {"tested_on": "LOX IMVI", "experiment": "NCI 60 panel: LOX IMVI (Melanoma)", "type": "cell-based"}, "NCI-H23": {"tested_on": "NCI-H23", "experiment": "NCI 60 panel: NCI-H23 (Non-Small Cell Lung Cancer)", "type": "cell-based"}, "HT29": {"tested_on": "HT29", "experiment": "NCI 60 panel: HT29 (Colon Cancer)", "type": "cell-based"}, "c-Jun phosphorylation": {"tested_on": "c-Jun phosphorylation", "experiment": "Intracellular signaling molecule phospho-array", "type": "cell-based", "conditions": "human hyperproliferative GBM cancer cells; effect requiring 24 hours", "method": "An intracellular signaling molecule phospho-array was performed in compound-treated human hyperproliferative GBM cancer cells and in vehicle-treated human hyperproliferative GBM cancer cells. The tested compounds included Compound DBM 228 (002-N8-28), Compound DBM 328 (003-8COOH), and Compound DBM 308 (003-8Cl). DMSO served as the vehicle control. The numbers reflect pairs of spots in the typical dot blots that correspond to major kinases and other signaling proteins. Compound DBM 328 (003-8COOH) is a negative control for this array experiment to complement the DMSO vehicle control."}, "[4]": {"conditions": "read-out: LC50 (the source's name)"}},
  "note": "Like-named read-outs stand apart in the source and are kept apart here.",
  "data": [
    {"smiles": "COc1ccccc1Nc1nc(-c2cc3cccc(N)c3oc2=O)cs1", "note": "[Compound DBM 228]", "values": [
      {"measurement": "GI50", "setting": "786-0", "value": 709, "unit": "nM"},
      {"measurement": "TGI", "setting": "786-0", "value": 15.9, "unit": "µM"},
      {"measurement": "CC50", "setting": "786-0; [4]", "value": 89.4, "unit": "µM"},
      {"measurement": "GI50", "setting": "COLO 205", "value": 337, "unit": "nM"},
      {"measurement": "TGI", "setting": "COLO 205", "value": 1.8, "unit": "µM"},
      {"measurement": "CC50", "setting": "COLO 205; [4]", "value": "> 100", "unit": "µM"},
      {"measurement": "GI50", "setting": "SN12C", "value": 526, "unit": "nM"},
      {"measurement": "TGI", "setting": "SN12C", "value": ">100", "unit": "µM"},
      {"measurement": "CC50", "setting": "SN12C; [4]", "value": "> 100", "unit": "µM"},
      {"measurement": "GI50", "setting": "HCT-116", "value": 79.5, "unit": "nM"},
      {"measurement": "TGI", "setting": "HCT-116", "value": 10, "unit": "µM"},
      {"measurement": "CC50", "setting": "HCT-116; [4]", "value": "> 100", "unit": "µM"},
      {"measurement": "IC50", "setting": "[1]", "value": 690, "unit": "nM"},
      {"measurement": "Max inhibition", "setting": "[1]", "value": 61, "unit": "%"},
      {"measurement": "CC50", "setting": "OVCAR-3", "value": 24.2, "unit": "µM"},
      {"measurement": "GI50", "setting": "OVCAR-3; OVCAR-3", "value": 45.6, "unit": "nM"},
      {"measurement": "TGI", "setting": "OVCAR-3; OVCAR-3", "value": 322, "unit": "nM"},
      {"measurement": "GI50", "setting": "OVCAR-3; OVCAR-3, as stated in text", "value": 50, "unit": "nM"},
      {"measurement": "CC50", "setting": "SK-OV-3", "value": "> 100", "unit": "µM"},
      {"measurement": "GI50", "setting": "SK-OV-3; SK-OV-3", "value": 410, "unit": "nM"},
      {"measurement": "TGI", "setting": "SK-OV-3; SK-OV-3", "value": 22, "unit": "µM"},
      {"measurement": "GI50", "setting": "SK-OV-3; SK-OV-3, as stated in text", "value": 330, "unit": "nM"},
      {"measurement": "CC50", "setting": "NCI/ADR-RES", "value": "> 100", "unit": "µM"},
      {"measurement": "potency in multi-drug resistant line, in words (FIG. 9)", "setting": "NCI/ADR-RES; NCI-ADR/RES versus drug-responsive cells", "value": "remained potent"},
      {"measurement": "GI50", "setting": "NCI/ADR-RES; NCI/ADR-RES", "value": 45.9, "unit": "nM"},
      {"measurement": "TGI", "setting": "NCI/ADR-RES; NCI/ADR-RES", "value": 327, "unit": "nM"},
      {"measurement": "IC50", "setting": "NCI/ADR-RES; read-out: potency in the NCI-ADR/RES cell line, multi-drug resistant NCI-ADR/RES", "value": 44.5, "unit": "nM"},
      {"measurement": "GI50", "setting": "CAKI-1 [2]", "value": 142, "unit": "nM"},
      {"measurement": "TGI", "setting": "CAKI-1 [2]", "value": 1.92, "unit": "µM"},
      {"measurement": "CC50", "setting": "CAKI-1 [2]; [4]", "value": 5.21, "unit": "µM"},
      {"measurement": "GI50", "setting": "TK-10", "value": 10, "unit": "µM"},
      {"measurement": "TGI", "setting": "TK-10", "value": 23.5, "unit": "µM"},
      {"measurement": "CC50", "setting": "TK-10; [4]", "value": 55, "unit": "µM"},
      {"measurement": "GI50", "setting": "HCT-15", "value": 128, "unit": "nM"},
      {"measurement": "TGI", "setting": "HCT-15", "value": 17.3, "unit": "µM"},
      {"measurement": "CC50", "setting": "HCT-15; [4]", "value": "> 100", "unit": "µM"},
      {"measurement": "GI50", "setting": "RPMI-8826", "value": 271, "unit": "nM"},
      {"measurement": "TGI", "setting": "RPMI-8826", "value": 312, "unit": "nM"},
      {"measurement": "CC50", "setting": "RPMI-8826; [4]", "value": "> 30", "unit": "µM"},
      {"measurement": "GI50", "setting": "CAKI-1 [3]", "value": 115, "unit": "nM"},
      {"measurement": "TGI", "setting": "CAKI-1 [3]", "value": 27.9, "unit": "µM"},
      {"measurement": "CC50", "setting": "CAKI-1 [3]; [4]", "value": "> 100", "unit": "µM"},
      {"measurement": "GI50", "setting": "LOX IMVI", "value": 900, "unit": "nM"},
      {"measurement": "TGI", "setting": "LOX IMVI", "value": 50.8, "unit": "µM"},
      {"measurement": "CC50", "setting": "LOX IMVI; [4]", "value": "> 100", "unit": "µM"},
      {"measurement": "GI50", "setting": "NCI-H23", "value": 504, "unit": "nM"},
      {"measurement": "TGI", "setting": "NCI-H23", "value": 15.8, "unit": "µM"},
      {"measurement": "CC50", "setting": "NCI-H23; [4]", "value": 63.1, "unit": "µM"},
      {"measurement": "GI50", "setting": "HT29", "value": 308, "unit": "nM"},
      {"measurement": "TGI", "setting": "HT29", "value": 1.6, "unit": "µM"},
      {"measurement": "CC50", "setting": "HT29; [4]", "value": 24.7, "unit": "µM"},
      {"measurement": "effect on c-Jun phosphorylation, in words", "setting": "c-Jun phosphorylation", "value": "potentiation of c-Jun phosphorylation"}
    ]}
  ]
}
